Patent US12059407B2, “Compositions and methods for delivery of macromolecules” (The Regents of the University of California, priority 2017, dated 2024)

Key:
[1] = test system: HEK293T cells; assay: Model study with Saporin: protein delivery; type: cell-based; details: HEK293T cells treated with only Saporin or only compound 1
[2] = test system: HEK293T cells; assay: Cytotoxicity assay in HEK293T cells; type: cell-based

Row | Substance | cell death, single agent only [1] | CC50 [2] [µM]
1 | Saporin | no cell death | 
2 | Triton X |  | 59
